Patent publication US20240400555A1 (Initial Therapeutics, Inc., priority 2023, published 2024)
Like-named read-outs stand apart in the source and are kept apart here.

System: MV-4-11 cells
Experiment: Cell Viability Assay in MV-4-11 Cells
Type: cell-based
Settings: Homo sapiens, MV4-11, 72 h
How it was run: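 Luminescent ATP read-out (CellTiter-Glo) after 72 h compound treatment of MV-4-11 leukaemia cells (7,000 per well, IMDM plus 10% FBS). Values expressed relative to DMSO control and derived by four-parameter non-linear regression.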

[1] = MV-4-11 cells, 72 h, Cell-Titer Glo, read-out: IC50

IC50 [1]	SMILES	IC50
47 nM	COC(=O)[C@@H]1COCCN1c1ccnc(Nc2ccc(C(=O)N(c3nccc4cccc(C)c34)[C@@H]3CCCNC3)c(F)c2)n1 [Example 945, methyl(S)-4-(2-((3-fluoro-4-((8-methylisoquinolin-1-yl)((R)-piperidin-3-yl)carbamoyl)phenyl)amino)pyrimidin-4-yl)morpholine-3-carboxylate]	
430 nM	O=C(c1ccc(-n2nnc3cccnc32)cc1F)N(c1nccc2sc(-c3cc[nH]c(=O)c3)cc12)[C@@H]1CCCNC1 [Example 459, 2-fluoro-N-[2-(2-oxo-1H-pyridin-4-yl)thieno[3,2-c]pyridin-4-yl]-N-[(3R)-3-piperidyl]-4-(triazolo[4,5-b]pyridin-3-yl)benzamide]	
64 nM	COCC1CCN(c2ccnc(Nc3ccc(C(=O)N(c4nccc5cccc(C)c45)[C@@H]4CCCNC4)c(F)c3)n2)CC1 [Example 964, (R)-2-fluoro-4-((4-(4-(methoxymethyl)piperidin-1-yl)pyrimidin-2-yl)amino)-N-(8-methylisoquinolin-1-yl)-N-(piperidin-3-yl)benzamide]	
120 nM	CCc1nnc(-c2ccc(C(=O)N(c3nccc4cc(F)cc(C)c34)[C@@H]3CCCNC3)c(F)c2)s1 [Example 832, (R)-4-(5-ethyl-1,3,4-thiadiazol-2-yl)-2-fluoro-N-(6-fluoro-8-methylisoquinolin-1-yl)-N-(piperidin-3-yl)benzamide]	
80 nM	CCOCc1nnc(-c2ccc(C(=O)N(c3nccc4cc(F)cc(C)c34)[C@@H]3CCCNC3)c(F)c2)s1 [Example 854, 4-[5-(ethoxymethyl)-1,3,4-thiadiazol-2-yl]-2-fluoro-N-(6-fluoro-8-methyl-1-isoquinolyl)-N-[(3R)-3-piperidyl]benzamide]	
250 nM	O=C(c1ccc(-n2nnc3cccnc32)cc1F)N(c1nccc2sc(-c3ccccc3O)cc12)[C@@H]1CCCNC1 [Example 428, 2-fluoro-N-[2-(2-hydroxyphenyl)thieno[3,2-c]pyridin-4-yl]-N-[(3R)-3-piperidyl]-4-(triazolo[4,5-b]pyridin-3-yl)benzamide]	
4100 nM	Cc1cc(Cl)cc2ccnc(N(C(=O)c3ccc(-c4cn(C)nn4)cc3F)[C@H]3CCCNC3)c12 [Example 621, (S)—N-(6-chloro-8-methylisoquinolin-1-yl)-2-fluoro-4-(1-methyl-1H-1,2,3-triazol-4-yl)-N-(piperidin-3-yl)benzamide]	
1500 nM	O=C(c1ccc(-n2nnc3cccnc32)cc1F)N(c1nccc2cccnc12)[C@@H]1CCCNC1 [Example 325, (R)-4-(3H-[1,2,3]triazolo[4,5-b]pyridin-3-yl)-2-fluoro-N-(1,7-naphthyridin-8-yl)-N-(piperidin-3-yl)benzamide]	
3200 nM	CCc1nnc(-c2ccc(C(=O)N(c3nccc4c(C)csc34)[C@@H]3CCCNC3)nc2)s1 [Example 669, 5-(5-ethyl-1,3,4-thiadiazol-2-yl)-N-(3-methylthieno[2,3-c]pyridin-7-yl)-N-[(3R)-3-piperidyl]pyridine-2-carboxamide]	
35 nM	Cc1cccc2ccnc(N(C(=O)c3ccc(Nc4nccc(N5CCC(=O)C5)n4)cc3F)[C@@H]3CCCNC3)c12 [Example 947, (R)-2-fluoro-N-(8-methylisoquinolin-1-yl)-4-((4-(3-oxopyrrolidin-1-yl)pyrimidin-2-yl)amino)-N-(piperidin-3-yl)benzamide]	
130 nM	O=C(c1ccc(-n2nnc3cccnc32)cc1F)N(c1nccc2sc(-c3ccc4[nH]ncc4c3)cc12)[C@@H]1CCCNC1 [Example 557, 2-fluoro-N-[2-(1H-indazol-5-yl)thieno[3,2-c]pyridin-4-yl]-N-[(3R)-3-piperidyl]-4-(triazolo[4,5-b]pyridin-3-yl)benzamide]	
77 nM	[2H]C([2H])([2H])c1nnc(-c2ccc(C(=O)N(c3nccc4cc(OC)cc(C)c34)[C@@H]3CCCNC3)cc2)s1 [Example 908, N-(6-methoxy-8-methyl-1-isoquinolyl)-N-[(3R)-3-piperidyl]-4-[5-(trideuteriomethyl)-1,3,4-thiadiazol-2-yl]benzamide]	
110 nM	Cc1cccc2ccnc(N(C(=O)c3ccc(Nc4nccc(N5CCCC[C@H]5CO)n4)cc3F)[C@@H]3CCCNC3)c12 [Example 960, 2-fluoro-4-((4-((S)-2-(hydroxymethyl)piperidin-1-yl)pyrimidin-2-yl)amino)-N-(8-methylisoquinolin-1-yl)-N—((R)-piperidin-3-yl)benzamide]	
5.3 nM	Cc1cccc2ccnc(N(C(=O)c3ccc(Nc4nccc(N5CCOCC5)n4)cc3F)[C@@H]3CCCNC3)c12 [Example 408, (R)-2-fluoro-N-(8-methylisoquinolin-1-yl)-4-((4-morpholinopyrimidin-2-yl)amino)-N-(piperidin-3-yl)benzamide]	
89 nM	Cc1cc(-c2cc3c(N(C(=O)c4ccc(-n5nnc6cccnc65)cc4F)[C@@H]4CCCNC4)nccc3s2)ccc1C(N)=O [Example 572, 4-[4-[[2-fluoro-4-(triazolo [4,5-b]pyridin-3-yl)benzoyl]-[(3R)-3-piperidyl]amino]thieno [3,2-c]pyridin-2-yl]-2-methyl-benzamide]	
1700 nM	Cc1cccc2ccnc(N(C(=O)N3CCCC(CCC(=O)Nc4ccc5cn[nH]c5c4)C3)[C@@H]3CCCNC3)c12 (stereo partly drawn) [Example 499, 3-(3-((1H-indazol-6-yl)amino)-3-oxopropyl)-N-(8-methylisoquinolin-1-yl)-N—((R)-piperidin-3-yl)piperidine-1-carboxamide]	

IC50 [1]	SMILES	IC50
1100 nM	C=CC(=O)NC1CCCN(C(=O)N(c2nccc3cccc(C)c23)[C@@H]2CCCNC2)C1 (stereo partly drawn) [Example 399, 3-acrylamido-N-(8-methylisoquinolin-1-yl)-N—((R)-piperidin-3-yl)piperidine-1-carboxamide]	
150 nM	Cc1nc(-c2ccc3c(N(C(=O)c4ccc(-n5nnc6cccnc65)cc4F)[C@@H]4CCCNC4)nccc3c2)cs1 [Example 575, (R)-4-(3H-[1,2,3]triazolo[4,5-b]pyridin-3-yl)-2-fluoro-N-(6-(2-methylthiazol-4-yl)isoquinolin-1-yl)-N-(piperidin-3-yl)benzamide]	
1000 nM	COC(=O)c1nc(-c2cc3c(N(C(=O)c4ccc(-n5nnc6cccnc65)cc4F)[C@@H]4CCCNC4)nccc3s2)cs1 [Example 429, methyl 4-[4-[[2-fluoro-4-(triazolo[4,5-b]pyridin-3-yl)benzoyl]-[(3R)-3-piperidyl]amino]thieno[3,2-c]pyridin-2-yl]thiazole-2-carboxylate]	
190 nM	CC(C)(Oc1cccc(-c2cc3c(N(C(=O)c4ccc(-n5nnc6cccnc65)cc4F)[C@@H]4CCCNC4)nccc3s2)c1)C(N)=O [Example 594]	
2700 nM	Cc1cc(C(=O)N(c2nccc3cccc(C)c23)[C@@H]2CCCNC2)ccc1Nc1ncccn1 [Example 747, (R)-3-methyl-N-(8-methylisoquinolin-1-yl)-N-(piperidin-3-yl)-4-(pyrimidin-2-ylamino)benzamide]	
1400 nM	COc1ccc2c(N(C(=O)c3ccc(-c4cn(C)nn4)cc3)[C@@H]3CCCNC3)nccc2c1Cl [Example 869, N-(5-chloro-6-methoxy-1-isoquinolyl)-4-(1-methyltriazol-4-yl)-N-[(3R)-3-piperidyl]benzamide]	
1200 nM	CNS(=O)(=O)c1cccc(-c2cc3c(N(C(=O)c4ccc(-c5cn(C)nn5)cc4F)[C@@H]4CCCNC4)nccc3s2)c1 [Example 535, 2-fluoro-N-[2-[3-(methylsulfamoyl)phenyl]thieno[3,2-c]pyridin-4-yl]-4-(1-methyltriazol-4-yl)-N-[(3R)-3-piperidyl]benzamide]	
	Cc1n[nH]c(-c2ccc(C(=O)N(c3nccc4cccc(C)c34)[C@@H]3CCCNC3)c(F)c2)n1 [Example 324, (R)-2-fluoro-4-(3-methyl-1H-1,2,4-triazol-5-yl)-N-(8-methylisoquinolin-1-yl)-N-(piperidin-3-yl) benzamide]	1500 nM
460 nM	Cc1cccc2ccnc(N(C(=O)c3ccc(Nc4nccc(CN5CCNCC5)n4)cc3F)[C@@H]3CCCNC3)c12 [Example 686, (R)-2-fluoro-N-(8-methylisoquinolin-1-yl)-4-((4-(piperazin-1-ylmethyl)pyrimidin-2-yl)amino)-N-(piperidin-3-yl)benzamide]	
760 nM	CNC(=O)c1ccc(-c2cc3c(N(C(=O)c4ccc(-c5cn(C)nn5)cc4F)[C@@H]4CCCNC4)nccc3s2)cc1 [Example 521, (R)-2-fluoro-4-(1-methyl-1H-1,2,3-triazol-4-yl)-N-(2-(4-(methylcarbamoyl)phenyl)thieno[3,2-c]pyridin-4-yl)-N-(piperidin-3-yl)benzamide]	
2100 nM	Cc1cccc2ccnc(N(C(=O)c3cccc(C#CCCN)c3)[C@@H]3CCCNC3)c12 [Example 515, (R)-3-(4-aminobut-1-yn-1-yl)-N-(8-methylisoquinolin-1-yl)-N-(piperidin-3-yl)benzamide]	
470 nM	Cn1cc(-c2ccc(C(=O)N(c3nccc4sc(-c5ccc(C(C)(C)C(N)=O)cc5)cc34)[C@@H]3CCCNC3)c(F)c2)nn1 [Example 595]	
420 nM	Cc1cccc2ccnc(N(C(=O)c3ccc(-c4cncc5c4OCCC5)cc3)[C@@H]3CCCNC3)c12 [Example 922, (R)-4-(3,4-dihydro-2H-pyrano[3,2-c]pyridin-8-yl)-N-(8-methylisoquinolin-1-yl)-N-(piperidin-3-yl)benzamide]	
84 nM	COCCn1cc(-c2ccc(C(=O)N(c3nccc4cc(F)cc(C)c34)[C@@H]3CCCNC3)cn2)nn1 [Example 920, N-(6-fluoro-8-methyl-1-isoquinolyl)-6-[1-(2-methoxyethyl)triazol-4-yl]-N-[(3R)-3-piperidyl]pyridine-3-carboxamide]	
62 nM	[2H]C([2H])([2H])c1nnc(-c2ccc(C(=O)N(c3nccc4cc(OC)cc(C)c34)[C@@H]3CCCNC3)cn2)s1 [Example 905, N-(6-methoxy-8-methyl-1-isoquinolyl)-N-[(3R)-3-piperidyl]-6-[5-(trideuteriomethyl)-1,3,4-thiadiazol-2-yl]pyridine-3-carboxamide]	
